Assay results as given in PMC6757289, “Design and Characterization of SGK3-PROTAC1, an Isoform Specific SGK3 Kinase PROTAC Degrader” (ACS Chemical Biology, 2019).
Read-outs that look alike come from different tables or passages of the source.

Assays:
Experiment in all cases: kinase profiling panel
Assay type in all cases: biochemical
Settings in all cases: read-out: % Activity Remaining
[1] = molecular target: CK1 delta (Homo sapiens, UniProt P48730)
From the text: (§1) Protein kinase profiling against a Dundee panel of 140 protein kinases was undertaken at the International Centre for Protein Kinase Profiling. The result for each kinase was presented as a mean kinase activity of the reaction taken in triplicate relative to a control sample treated with DMSO. Assay conditions and abbreviations are available at http://www.kinase-screen.mrc.ac.uk.

[2] = molecular target: T1, EIF2AK3 (Homo sapiens, UniProt Q9NZJ5)
T1 sequence (Q9NZJ5 30-1116): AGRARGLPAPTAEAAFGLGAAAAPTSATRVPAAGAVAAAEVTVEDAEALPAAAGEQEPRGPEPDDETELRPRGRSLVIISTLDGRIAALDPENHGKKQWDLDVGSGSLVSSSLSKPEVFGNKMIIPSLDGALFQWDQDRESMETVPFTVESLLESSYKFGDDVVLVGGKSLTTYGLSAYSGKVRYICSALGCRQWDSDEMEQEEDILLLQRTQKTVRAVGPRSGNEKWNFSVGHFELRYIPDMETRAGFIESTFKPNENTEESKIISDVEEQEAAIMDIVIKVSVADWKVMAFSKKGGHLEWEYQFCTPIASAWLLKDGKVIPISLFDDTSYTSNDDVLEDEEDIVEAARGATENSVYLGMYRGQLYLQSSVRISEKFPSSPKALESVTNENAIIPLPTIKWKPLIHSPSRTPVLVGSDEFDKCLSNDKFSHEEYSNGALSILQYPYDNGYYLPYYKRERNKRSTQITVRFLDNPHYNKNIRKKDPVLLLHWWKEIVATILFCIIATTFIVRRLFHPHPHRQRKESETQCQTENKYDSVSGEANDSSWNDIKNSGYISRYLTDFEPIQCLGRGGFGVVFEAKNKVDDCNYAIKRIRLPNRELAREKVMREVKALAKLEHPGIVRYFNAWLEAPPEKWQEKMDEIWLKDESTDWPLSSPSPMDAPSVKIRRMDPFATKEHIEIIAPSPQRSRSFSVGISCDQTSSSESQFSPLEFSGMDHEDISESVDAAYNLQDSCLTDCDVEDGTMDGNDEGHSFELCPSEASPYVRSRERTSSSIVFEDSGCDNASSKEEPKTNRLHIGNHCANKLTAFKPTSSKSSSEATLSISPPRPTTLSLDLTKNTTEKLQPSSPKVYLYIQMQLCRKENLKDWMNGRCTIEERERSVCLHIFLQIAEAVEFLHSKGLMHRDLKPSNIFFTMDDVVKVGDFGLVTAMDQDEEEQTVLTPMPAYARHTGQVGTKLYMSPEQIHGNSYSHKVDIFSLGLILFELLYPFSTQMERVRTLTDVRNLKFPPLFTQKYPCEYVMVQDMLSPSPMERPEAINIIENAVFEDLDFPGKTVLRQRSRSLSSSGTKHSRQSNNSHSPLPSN
From the text: as §1

[3] = molecular target: T2, MAP4K3 (Homo sapiens, UniProt Q8IVH8)
T2 sequence (Q8IVH8 1-894): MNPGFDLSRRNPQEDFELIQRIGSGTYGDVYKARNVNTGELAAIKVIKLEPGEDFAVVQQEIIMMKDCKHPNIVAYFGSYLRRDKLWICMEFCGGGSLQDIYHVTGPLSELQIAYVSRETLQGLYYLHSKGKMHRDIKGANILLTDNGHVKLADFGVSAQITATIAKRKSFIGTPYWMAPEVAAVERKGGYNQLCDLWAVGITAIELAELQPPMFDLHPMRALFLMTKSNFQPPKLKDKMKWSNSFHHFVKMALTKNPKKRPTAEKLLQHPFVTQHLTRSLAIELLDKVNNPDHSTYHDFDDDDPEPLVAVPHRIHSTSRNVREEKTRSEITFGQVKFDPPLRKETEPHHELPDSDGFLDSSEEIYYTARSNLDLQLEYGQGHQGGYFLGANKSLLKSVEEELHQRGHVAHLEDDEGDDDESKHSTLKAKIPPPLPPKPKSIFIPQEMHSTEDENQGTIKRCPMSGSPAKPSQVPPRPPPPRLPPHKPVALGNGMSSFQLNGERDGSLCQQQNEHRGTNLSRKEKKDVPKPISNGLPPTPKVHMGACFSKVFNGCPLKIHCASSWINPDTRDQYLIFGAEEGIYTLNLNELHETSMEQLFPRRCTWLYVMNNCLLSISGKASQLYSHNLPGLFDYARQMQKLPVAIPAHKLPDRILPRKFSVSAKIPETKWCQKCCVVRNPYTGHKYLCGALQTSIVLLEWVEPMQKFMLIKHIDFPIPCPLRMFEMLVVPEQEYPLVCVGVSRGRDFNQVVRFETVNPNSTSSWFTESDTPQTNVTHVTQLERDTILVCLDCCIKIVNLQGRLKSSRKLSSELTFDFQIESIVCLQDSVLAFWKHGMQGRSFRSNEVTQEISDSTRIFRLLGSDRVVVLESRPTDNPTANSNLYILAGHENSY
From the text: as §1

[4] = molecular target: TrkA (Homo sapiens, UniProt P04629)
From the text: as §1

[5] = molecular target: T3, PDK1 (Homo sapiens, UniProt O15530)
T3 sequence (O15530 1-556): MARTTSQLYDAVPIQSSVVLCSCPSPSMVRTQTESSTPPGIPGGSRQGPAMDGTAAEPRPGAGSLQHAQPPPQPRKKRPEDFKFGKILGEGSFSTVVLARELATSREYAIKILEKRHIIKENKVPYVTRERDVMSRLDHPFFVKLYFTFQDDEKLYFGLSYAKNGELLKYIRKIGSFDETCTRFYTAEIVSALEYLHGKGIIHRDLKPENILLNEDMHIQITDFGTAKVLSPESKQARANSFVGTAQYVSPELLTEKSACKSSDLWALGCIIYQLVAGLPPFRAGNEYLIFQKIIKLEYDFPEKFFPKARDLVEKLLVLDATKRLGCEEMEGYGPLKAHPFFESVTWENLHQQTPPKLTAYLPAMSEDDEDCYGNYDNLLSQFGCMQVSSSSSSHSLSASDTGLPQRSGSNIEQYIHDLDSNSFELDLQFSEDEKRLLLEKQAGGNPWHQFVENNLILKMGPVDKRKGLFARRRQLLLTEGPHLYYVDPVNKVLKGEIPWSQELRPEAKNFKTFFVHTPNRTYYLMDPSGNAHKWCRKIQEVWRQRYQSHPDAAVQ
From the text: as §1

Chain of TrkA (P04629 33-796): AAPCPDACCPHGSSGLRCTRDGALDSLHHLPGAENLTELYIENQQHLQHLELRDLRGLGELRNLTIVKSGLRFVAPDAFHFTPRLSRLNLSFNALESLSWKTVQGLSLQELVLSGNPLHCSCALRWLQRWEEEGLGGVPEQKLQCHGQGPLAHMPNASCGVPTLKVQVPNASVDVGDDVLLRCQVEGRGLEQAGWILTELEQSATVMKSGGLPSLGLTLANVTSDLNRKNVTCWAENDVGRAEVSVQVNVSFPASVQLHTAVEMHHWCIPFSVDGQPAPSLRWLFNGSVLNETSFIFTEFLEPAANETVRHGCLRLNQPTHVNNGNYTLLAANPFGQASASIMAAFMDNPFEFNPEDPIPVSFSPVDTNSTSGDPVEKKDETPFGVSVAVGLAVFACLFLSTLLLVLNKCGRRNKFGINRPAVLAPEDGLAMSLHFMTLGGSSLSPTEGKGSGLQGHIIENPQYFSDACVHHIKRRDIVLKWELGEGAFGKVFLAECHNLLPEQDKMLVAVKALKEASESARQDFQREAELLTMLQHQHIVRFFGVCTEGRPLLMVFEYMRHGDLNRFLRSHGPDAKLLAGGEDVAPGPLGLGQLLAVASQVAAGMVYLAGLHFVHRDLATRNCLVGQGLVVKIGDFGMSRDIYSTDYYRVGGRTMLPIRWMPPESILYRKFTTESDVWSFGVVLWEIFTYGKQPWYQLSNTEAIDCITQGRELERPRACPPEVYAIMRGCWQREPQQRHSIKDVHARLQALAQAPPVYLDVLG
Chain of CK1 delta (P48730 whole entry): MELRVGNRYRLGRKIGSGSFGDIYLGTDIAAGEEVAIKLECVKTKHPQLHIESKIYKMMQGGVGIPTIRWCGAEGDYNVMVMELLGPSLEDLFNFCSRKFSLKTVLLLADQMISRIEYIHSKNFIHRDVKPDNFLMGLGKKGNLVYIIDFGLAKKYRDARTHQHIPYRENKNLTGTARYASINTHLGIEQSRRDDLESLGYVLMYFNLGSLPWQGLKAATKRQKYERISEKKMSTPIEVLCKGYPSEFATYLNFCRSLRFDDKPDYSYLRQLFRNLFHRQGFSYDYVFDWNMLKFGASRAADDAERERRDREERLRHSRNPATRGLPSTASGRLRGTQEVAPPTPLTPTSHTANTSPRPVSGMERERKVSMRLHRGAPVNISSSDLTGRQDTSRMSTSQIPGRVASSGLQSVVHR

Structure (SMILES) | remaining activity at 1 µM ([1]; 1 µM) | remaining activity at 1 µM ([2]; 1 µM) | remaining activity at 1 µM ([3]; 1 µM) | remaining activity at 1 µM ([4]; 1 µM) | remaining activity at 1 µM ([5]; 1 µM) | remaining activity at 1 µM [1] | remaining activity at 1 µM [2] | remaining activity at 1 µM [3] | remaining activity at 1 µM [4] | remaining activity at 1 µM [5]
Cc1ccc(F)c(S(=O)(=O)Nc2ccc(-c3nc(OC[C@H]4CN(CCCCCCOCCOCCOCC(=O)N[C@H](C(=O)N5C[C@H](O)C[C@H]5C(=O)NCc5ccc(-c6scnc6C)cc5)C(C)(C)C)CCO4)c4cn[nH]c4n3)cc2)c1 [SGK3-PROTAC1] | 95% | 106% | 99% | 112% | 99% |  |  |  |  | 
COc1ccc(Cl)c(S(=O)(=O)Nc2ccc(-c3nc(OC[C@H]4CNCCO4)c4c(C)n[nH]c4n3)cc2)c1 [290-R, reference compound] |  |  |  |  |  | 65% | 66% | 2% | 104% | 117%
Cc1ccc(F)c(S(=O)(=O)Nc2ccc(-c3nc(OC[C@H]4CN(CCCCCCOCCOCCOCC(=O)N[C@H](C(=O)N5C[C@@H](O)C[C@H]5C(=O)NCc5ccc(-c6scnc6C)cc5)C(C)(C)C)CCO4)c4cn[nH]c4n3)cc2)c1 [cisSGK3-PROTAC1] | 108% | 111% | 95% | 102% | 87% |  |  |  |  | 
Cc1ccc(F)c(S(=O)(=O)Nc2ccc(-c3nc(OC[C@H]4CNCCO4)c4cn[nH]c4n3)cc2)c1 [308-R, reference compound] |  |  |  |  |  | 121% | 63% | 8% | 71% | 88%
